Laboratory results reported in patent US11007169B2, “Cis-gnetin H and trans-gnetin H as therapeutic agents” (MIDDLE TENNESSEE STATE UNIVERSITY, priority 2014, dated 2021).

Experiments:
[1] = system: phosphorylated p65 (Ser536) in LPS-stimulated THP-1 cells; test: Western blot, p65 phosphorylation; format: cell-based, human
Experimental: (§1) THP-1 cells were maintained in RPMI 1640 medium supplemented with 10% complement-inactivated FBS and 1% penicillin/streptomycin (complete culture medium) at 37° C. with 5% CO2 supplemented. Cell concentrations were adjusted to desired concentrations for each experiment by centrifugation at 500×g for 5 min and resuspended in complete culture medium with 100 nM of PMA. Cell concentration was adjusted to 5×10^5 cells/ml for all assays and 2.5×10^5 cells/ml were used for NF-κB nuclear translocation assay. Cells were seeded onto 96-, 24-, or 12-well plates and incubated for 48 to 72 h to allow for differentiation. Cells were washed with serum-free RPMI 1640 medium before each experiment to remove the undifferentiated cells.
(§2) Differentiated THP-1 cells were pretreated with various concentrations of cis-gnetin H, trans-gnetin H, or 10 μM of Bay 11-7082 for 1 h and stimulated with 1 μg/ml of LPS for 15 min. Cells were lysed with radio-immunoprecipitation assay (RIPA; 1% Triton X-100, 0.5% Sodium deoxycholate, 0.1% sodium dodecyl sulfate, 150 mM sodium chloride, and 50 mM Tris-chloride) lysis buffer that contained protease and phosphatase inhibitor cocktail. Cell lysates were then tested for protein concentration using a BCA protein assay, and diluted with RIPA lysis buffer to normalize protein concentration in all samples. […]

[2] = system: phosphorylated IκB α (Ser32) in LPS-stimulated THP-1 cells; test: Western blot, IκB α phosphorylation; format: cell-based, human; settings: concentration-dependent
Experimental: as §1, §2

[3] = system: NF-κB nuclear translocation in A549 cells; test: Inhibition of TNF-α activated NF-κB translocation, Arrayscan VTI HCS Reader; format: cell-based, human; settings: 100 μM for 2 hrs, then 10 ng/ml TNF-α
Experimental: A549 cells were seeded in 96 well plates (BD Falcon) at a density of 4000 cells/well, and were treated with 100 μM cis- or trans-gnetin H for 2 hrs, followed by treatment of 10 ng/ml tumor necrosis factor-alpha (TNF-α) (Sigma). Untreated cells and cells treated with only 10 ng/ml TNF-α served as controls. Cells were fixed, permeabilized, and stained with Nuclear factor kappa B (NF-κB) primary antibody, Dylight 488 conjugated secondary antibody, and Hoechst 33342 dye, sequentially. The Hoechst and DyLight fluorophores respectively detect changes in nuclear morphology (blue fluorescence) and NF-κB distribution (green fluorescence). Images were acquired at different channels using suitable filters with a 20× objective and analyzed on the Arrayscan VTI HCS Reader (Thermo Scientific). The Nuclear Translocation BioApplication software (Thermo Scientific) was used for image acquisition and analysis. For each well, at least 400 cells were automatically acquired and analyzed. The translocation index was calculated by measuring the average intensity difference of NF-κB between the identified cytoplasmic region and nuclear region (MEAN_CircRingAvgIntenDiffCh2). Experiments were performed in triplicates.

[4] = system: PMA-differentiated THP-1 macrophages; test: Cell viability Alamar Blue assay, PMA-differentiated THP-1; format: cell-based, human; settings: for viability of PMA-differentiated THP-1 cells: 3, 6, 13, 25, 50, 100 μM, 24 h treatment
Experimental: as §1
Differentiated THP-1 cells were treated with various concentrations of cis- and trans-gnetin H and 1 μM of dexamethasone for 24 h. Following treatment, the cell supernatants were replaced with culture medium containing 1× Alamar Blue reagent and incubated for an additional 20-24 h. Cell viability was assessed by measuring Relative Fluorescent Units (RFU) on the SpectraMax M2e microplate reader (Molecular Devices Inc., Sunnyvale, Calif., USA) at Ex 560 nm and Em 590 nm. The results were expressed as a percentage, relative to untreated control cells (FIG. 9). Untreated and LPS-treated cells were tested for the effect of DMSO as vehicle control.
Differentiated THP-1 cells were pretreated with various concentrations of cis-gnetin H, trans-gnetin H, or 1 μM of dexamethasone for 1 h and stimulated with 20 ng/ml of LPS for 4 h. Dexamethasone is a synthetic glucocorticoid that suppresses cytokine response and was used as a positive control (Abraham et al., 2006, J. Exp. Med., 203:1883-9; Steer et al., J. Biol. Chem., 2000, 275(24):18432-40). Supernatants were collected for human cytokine ELISAs and the manufacturer's protocol was followed to assess the cytokine response. Cells remaining after the supernatant collection were tested for relative viability by Alamar Blue cytotoxicity assay as described earlier.

[5] = Conversion testing under 12-watt fluorescent lamp, HPLC; format: physicochemical; settings: 6-hour treatment; for concentration of the compound after illumination: HPLC
Experimental: For stability testing, cis- and trans-gnetin H were dissolved with methanol to a concentration of 1 mg/ml. The stock solutions were sealed in a glass bottle and kept in the dark at room temperature for 6 months and then the purity of the two compounds was tested using the HPLC method previously described (He et al., J. Liq. Chromatog. Rel. Technol. 2013; 36:1708-1724). For conversion testing, cis- and trans-gnetin H were individually illuminated with a 12-watt fluorescent lamp for 2, 4 and 6 hours, and the compounds were identified using HPLC.

Row | concentration of the compound after illumination [5] [%] | portion converted to its cis-isomer [5] | SMILES | p65 phosphorylation ([1]; only at the highest concentration, 50 μM) | IκB α phosphorylation [2] | TNF-α-induced NF-κB nuclear translocation [3] | viability of PMA-differentiated THP-1 cells [4] | cell viability with LPS ([4]; pretreatment 12.5, 25, 50 μM and LPS) | p65 phosphorylation ([1]; both 15 and 30 μM) | cell viability with LPS relative to untreated control ([4]; pretreated at 50 μM and LPS)
1 | 88.9 |  | Oc1ccc(/C=C\c2c3c(cc4c2[C@H](c2cc(O)cc(O)c2)[C@@H](c2ccc(O)cc2)O4)O[C@H](c2ccc(O)cc2)[C@H]3c2cc(O)cc(O)c2)cc1 [cis-gnetin H] | significantly inhibited | significantly inhibited | significant inhibition | Neither cis- nor trans-gnetin H affected the viability of the cells | no effect on cell viability |  | 
2 | 6.2 | about 86% | Oc1ccc(/C=C/c2c3c(cc4c2[C@H](c2cc(O)cc(O)c2)[C@@H](c2ccc(O)cc2)O4)O[C@H](c2ccc(O)cc2)[C@H]3c2cc(O)cc(O)c2)cc1 [trans-gnetin H] |  | significantly inhibited | significant inhibition | Neither cis- nor trans-gnetin H affected the viability of the cells |  | significantly inhibited | decreased viability
